Assay results taken from patent US9994614B2, “N-methyl-D-aspartate receptor modulators and methods of making and using same” (Naurex, Inc., priority 2014, dated 2018).
Non-standard residues stand in square brackets, D forms with d. Residues, ends and D or L forms follow the SMILES beside them. Hyp = O=C(O)[C@@H]1C[C@@H](O)CN1

What was measured:
Format in all cases: biochemical
[1] = target: T1, NR2A (Rattus norvegicus, UniProt Q00959); assay: [3H]MK-801 potentiation assay, NR2A
T1 construct: corresponding to 200 μg of rat cortical membrane extract protein in each reaction; from tissue; host or cells: rat telencephalon (frontal cortex and hippocampus), male Sprague-Dawley
Protocol: Briefly, tissue that had been stored at −80° C. was homogenized in ice cold 10 mM Tris (pH7.4 at 4° C.) using a Brinkman Polytron and then pelleted by centrifugation at 51,500 g for 20 min. The resulting supernatant was discarded and the membranes were homogenized and washed an additional 3×. Pellets were then resuspended in 5 mM EDTA/15 mM Tris (pH7.4) and incubated for 1 hr at 37° C. The membrane suspensions were then pelleted by centrifugation at 51,500 g for 20 min and stored at −80° C. overnight. The pellets were resuspended in 10 mM Tris HCl (pH7.4 at 4° C.) and homogenized and washed an additional 7 times and frozen at […] until assay.
Briefly, 300 μg of membrane extract protein were preincubated for 15 minutes at 25° C. in the presence of a saturating concentration of glutamate (50 μM) and varying concentrations of GLYX-13. […] Zero levels were determined in the absence of any glycine ligand in the presence of 30 μM dichlorokyneurenic acid. […]
The origin of aberrantly high background glycine, or bioactive plastic leachates that act like glycine, can stemrom either the water itself, the LC/MS grade water filter used, or a result of time-dependent leaching from plasticware (including storage tubes, beakers, pipette tips). […] Absolute background percentages are calculated. […]
Samples must wait at least 3 hours prior to quantitation in the scintillation counter. […]

[2] = target: T2, NR2D (Rattus norvegicus, UniProt Q62645); assay: [3H]MK-801 potentiation assay, NR2D; settings: for NR2D Activity % max glycine: relative to stimulation by 1 mM glycine and 50 μM glutamate
T2 construct: corresponding to 200 μg of rat cortical membrane extract protein in each reaction; from tissue; host or cells: rat telencephalon (frontal cortex and hippocampus), male Sprague-Dawley

[3] = target: T3, NR2B (Rattus norvegicus, UniProt Q00960); assay: [3H]MK-801 potentiation assay, NR2B
T3 construct: corresponding to 200 μg of rat cortical membrane extract protein in each reaction; from tissue; host or cells: rat telencephalon (frontal cortex and hippocampus), male Sprague-Dawley
Protocol: Crude synaptic membranes were prepared using rat telencephalon (frontal cortex and hippocampus tissue) from male Sprague-Dawley rats and extensively washed using procedures modified from the Moskal et al. 2001 Review; The use of antibody engineering to create novel drugs that target N-methyl-D-aspartate receptors, Current Drug Targets, 2(3):331-45. Briefly, tissue that had been stored at −80° C. was homogenized in ice cold 10 mM Tris (pH7.4 at 4° C.) using a Brinkman Polytron and then pelleted by centrifugation at 51,500 g for 20 min. The resulting supernatant was discarded and the membranes were homogenized and washed an additional 3×. […]
Functional glycine site agonist effects were measured using an a [^3H]MK-801 potentiation assay (see Urwyler S, Floersheim P, Roy B L, Koller M. J Med Chem. (2009) 52(16):5093-107). […] Zero levels were determined in the absence of any glycine ligand in the presence of 30 μM dichlorokyneurenic acid. The % maximal [^3H]MK-801 binding was calculated relative to stimulation measured in the presence of 1 mM glycine and 50 μM glutamate. […]
For compounds with relatively low activity (e.g., GLYX-13), the identification and elimination of background glycine levels can have a significant effect on the interpretation of this assay. […] Absolute background percentages are calculated. […]

[4] = target: T4, NR2C (Rattus norvegicus, UniProt P35439+Q00961); assay: [3H]MK-801 potentiation assay, NR2C; settings: in presence of 50 μM glutamate; read-out: NR2C Potency logM (converted)
T4 construct: corresponding to 200 μg of rat cortical membrane extract protein in each reaction; from tissue; host or cells: rat telencephalon (frontal cortex and hippocampus), male Sprague-Dawley

[5] = target: T5, NR2C (Rattus norvegicus, UniProt Q00961); assay: [3H]MK-801 potentiation assay, NR2C; settings: relative to stimulation by 1 mM glycine and 50 μM glutamate
T5 construct: corresponding to 200 μg of rat cortical membrane extract protein in each reaction; from tissue; host or cells: rat telencephalon (frontal cortex and hippocampus), male Sprague-Dawley

[6] = relative to stimulation by 1 mM glycine and 50 μM glutamate

T2 sequence (Q62645 28-1323, other chains not shown): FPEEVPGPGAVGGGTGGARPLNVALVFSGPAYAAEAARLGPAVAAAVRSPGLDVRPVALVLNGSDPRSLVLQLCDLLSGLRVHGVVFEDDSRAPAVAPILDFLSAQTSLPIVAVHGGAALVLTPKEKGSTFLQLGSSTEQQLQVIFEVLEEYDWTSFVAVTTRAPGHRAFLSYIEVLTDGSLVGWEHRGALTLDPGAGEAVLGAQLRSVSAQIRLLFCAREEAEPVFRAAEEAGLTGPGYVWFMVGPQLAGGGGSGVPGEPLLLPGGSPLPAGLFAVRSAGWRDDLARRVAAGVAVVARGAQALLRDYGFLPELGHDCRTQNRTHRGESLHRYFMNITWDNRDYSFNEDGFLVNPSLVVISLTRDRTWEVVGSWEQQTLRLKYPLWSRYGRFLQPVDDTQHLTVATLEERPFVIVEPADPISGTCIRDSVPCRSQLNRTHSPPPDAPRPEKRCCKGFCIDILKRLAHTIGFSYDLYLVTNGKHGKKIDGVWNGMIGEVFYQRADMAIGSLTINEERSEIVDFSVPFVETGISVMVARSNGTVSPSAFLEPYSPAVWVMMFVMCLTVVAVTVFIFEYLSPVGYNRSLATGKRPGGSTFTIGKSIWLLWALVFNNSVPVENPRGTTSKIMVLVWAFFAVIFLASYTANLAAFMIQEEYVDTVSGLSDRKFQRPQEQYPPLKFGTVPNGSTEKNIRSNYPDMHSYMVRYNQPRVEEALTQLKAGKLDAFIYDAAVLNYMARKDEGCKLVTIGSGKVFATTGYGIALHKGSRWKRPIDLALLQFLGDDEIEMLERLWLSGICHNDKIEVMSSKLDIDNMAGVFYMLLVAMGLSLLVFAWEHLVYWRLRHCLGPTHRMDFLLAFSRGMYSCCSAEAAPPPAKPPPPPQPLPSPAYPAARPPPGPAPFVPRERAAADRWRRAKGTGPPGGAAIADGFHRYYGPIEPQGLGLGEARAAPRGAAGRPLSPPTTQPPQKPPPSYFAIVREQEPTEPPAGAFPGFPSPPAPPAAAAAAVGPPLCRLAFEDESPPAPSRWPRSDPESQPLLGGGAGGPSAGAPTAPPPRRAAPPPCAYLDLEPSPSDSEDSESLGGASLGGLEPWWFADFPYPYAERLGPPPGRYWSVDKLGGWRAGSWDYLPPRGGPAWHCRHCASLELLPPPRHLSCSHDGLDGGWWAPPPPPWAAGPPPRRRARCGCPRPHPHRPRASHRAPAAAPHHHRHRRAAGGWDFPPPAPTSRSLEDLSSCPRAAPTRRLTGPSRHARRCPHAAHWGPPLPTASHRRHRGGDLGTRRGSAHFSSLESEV
T3 sequence (Q00960 27-1482, other chains not shown): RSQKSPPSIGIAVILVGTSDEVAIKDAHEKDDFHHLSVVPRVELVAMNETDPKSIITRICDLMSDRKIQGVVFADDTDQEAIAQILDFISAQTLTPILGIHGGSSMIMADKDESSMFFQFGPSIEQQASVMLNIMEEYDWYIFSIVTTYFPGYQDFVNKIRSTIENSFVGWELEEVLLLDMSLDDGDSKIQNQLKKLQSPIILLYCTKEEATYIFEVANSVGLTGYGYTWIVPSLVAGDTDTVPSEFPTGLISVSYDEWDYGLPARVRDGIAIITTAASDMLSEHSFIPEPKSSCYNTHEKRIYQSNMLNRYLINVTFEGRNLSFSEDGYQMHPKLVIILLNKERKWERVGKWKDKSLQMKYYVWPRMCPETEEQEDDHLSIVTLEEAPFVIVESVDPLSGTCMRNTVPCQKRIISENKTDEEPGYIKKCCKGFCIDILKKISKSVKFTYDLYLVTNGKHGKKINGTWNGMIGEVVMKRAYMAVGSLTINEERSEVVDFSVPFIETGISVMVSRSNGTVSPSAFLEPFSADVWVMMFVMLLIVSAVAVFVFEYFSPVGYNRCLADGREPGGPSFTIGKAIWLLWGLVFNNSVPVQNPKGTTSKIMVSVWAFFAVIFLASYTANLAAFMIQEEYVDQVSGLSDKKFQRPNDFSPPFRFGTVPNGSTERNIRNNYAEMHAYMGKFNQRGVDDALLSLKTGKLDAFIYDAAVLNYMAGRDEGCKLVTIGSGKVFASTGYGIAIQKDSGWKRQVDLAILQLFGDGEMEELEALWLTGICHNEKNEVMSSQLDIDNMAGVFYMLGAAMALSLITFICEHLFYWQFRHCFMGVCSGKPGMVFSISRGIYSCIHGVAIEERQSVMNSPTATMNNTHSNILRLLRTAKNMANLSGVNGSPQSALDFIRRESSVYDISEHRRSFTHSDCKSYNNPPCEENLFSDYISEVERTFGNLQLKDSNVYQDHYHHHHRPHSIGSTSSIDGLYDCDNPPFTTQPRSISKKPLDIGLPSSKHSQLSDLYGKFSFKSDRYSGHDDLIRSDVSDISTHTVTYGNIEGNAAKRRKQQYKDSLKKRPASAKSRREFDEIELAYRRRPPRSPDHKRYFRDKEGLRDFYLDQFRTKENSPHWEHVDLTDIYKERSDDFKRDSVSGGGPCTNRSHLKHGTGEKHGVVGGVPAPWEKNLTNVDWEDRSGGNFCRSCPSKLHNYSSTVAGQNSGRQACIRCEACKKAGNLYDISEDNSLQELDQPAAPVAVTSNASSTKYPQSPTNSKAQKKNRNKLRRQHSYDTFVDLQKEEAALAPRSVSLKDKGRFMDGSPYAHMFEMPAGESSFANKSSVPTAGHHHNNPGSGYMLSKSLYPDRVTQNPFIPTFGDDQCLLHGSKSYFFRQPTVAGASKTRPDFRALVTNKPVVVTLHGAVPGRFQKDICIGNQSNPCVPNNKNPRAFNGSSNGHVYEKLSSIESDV
T1 sequence (Q00959 23-1464, other chains not shown): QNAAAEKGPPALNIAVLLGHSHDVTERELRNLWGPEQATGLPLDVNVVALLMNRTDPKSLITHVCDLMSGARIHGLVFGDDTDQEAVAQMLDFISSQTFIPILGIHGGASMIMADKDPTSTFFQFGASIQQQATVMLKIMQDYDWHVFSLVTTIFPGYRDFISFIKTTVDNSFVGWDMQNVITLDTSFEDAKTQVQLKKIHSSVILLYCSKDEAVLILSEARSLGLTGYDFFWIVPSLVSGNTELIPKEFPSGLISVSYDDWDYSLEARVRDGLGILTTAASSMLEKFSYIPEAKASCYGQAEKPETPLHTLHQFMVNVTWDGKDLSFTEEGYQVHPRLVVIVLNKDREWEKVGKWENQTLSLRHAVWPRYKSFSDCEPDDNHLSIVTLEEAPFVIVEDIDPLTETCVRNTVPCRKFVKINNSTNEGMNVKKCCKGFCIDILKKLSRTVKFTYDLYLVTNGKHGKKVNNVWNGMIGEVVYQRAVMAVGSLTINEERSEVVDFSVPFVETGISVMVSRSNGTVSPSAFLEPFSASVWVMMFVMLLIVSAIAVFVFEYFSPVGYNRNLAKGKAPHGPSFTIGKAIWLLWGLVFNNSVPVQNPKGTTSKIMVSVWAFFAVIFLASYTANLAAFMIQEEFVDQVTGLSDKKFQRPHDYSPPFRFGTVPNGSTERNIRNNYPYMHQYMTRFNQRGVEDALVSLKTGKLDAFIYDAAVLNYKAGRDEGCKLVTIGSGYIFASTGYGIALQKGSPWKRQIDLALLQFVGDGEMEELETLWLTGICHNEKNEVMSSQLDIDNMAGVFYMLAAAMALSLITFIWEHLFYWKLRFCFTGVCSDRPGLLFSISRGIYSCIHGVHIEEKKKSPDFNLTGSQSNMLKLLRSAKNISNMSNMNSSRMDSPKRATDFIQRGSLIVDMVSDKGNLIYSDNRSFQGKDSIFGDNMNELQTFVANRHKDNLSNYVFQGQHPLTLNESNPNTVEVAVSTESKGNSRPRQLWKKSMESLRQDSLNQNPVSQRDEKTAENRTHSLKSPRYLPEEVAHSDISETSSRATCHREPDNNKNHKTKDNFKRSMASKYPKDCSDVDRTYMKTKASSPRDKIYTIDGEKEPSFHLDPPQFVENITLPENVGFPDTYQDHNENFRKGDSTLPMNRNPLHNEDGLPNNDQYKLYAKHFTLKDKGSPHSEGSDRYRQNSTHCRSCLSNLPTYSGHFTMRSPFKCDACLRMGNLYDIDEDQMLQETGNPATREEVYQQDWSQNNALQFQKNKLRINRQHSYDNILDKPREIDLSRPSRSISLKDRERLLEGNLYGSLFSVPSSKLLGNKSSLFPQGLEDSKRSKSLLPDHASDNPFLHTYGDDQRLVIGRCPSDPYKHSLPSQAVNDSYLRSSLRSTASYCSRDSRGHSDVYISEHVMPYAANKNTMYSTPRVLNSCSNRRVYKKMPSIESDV

| SMILES | EC50 ([1]; in presence of 50 μM glutamate, read-out: NR2A Potency logM (converted)) | NR2A Activity % max glycine [1, 6] | NR2D Potency logM ([2]; in presence of 50 μM glutamate) | NR2D Activity % max glycine [2] | NR2B Potency logM ([3]; in presence of 50 μM glutamate) | NR2B Activity % max glycine [3, 6] | EC50 [4] | NR2C Activity % max glycine [5] | EC50 ([2]; in presence of 50 μM glutamate, read-out: NR2D Potency logM (converted)) |
| --- | --- | --- | --- | --- | --- | --- | --- | --- | --- |
| CC(=O)OC1C[C@@H](C(=O)N[C@@H](Cc2c[nH]c3ccccc23)C(=O)N[C@H](C(N)=O)[C@@H](C)O)N(C(=O)[C@@H](N)[C@@H](C)O)C1 (stereo partly shown) [Compound A-3] | 17.4 pM | 58.25 % max glycine | −13.68 logM | 35.17 % max glycine | – | – | – | – | – |
| C[C@@H](O)[C@H](NC(=O)[C@H](Cc1c[nH]c2ccccc12)NC(=O)[C@@H]1C[C@@H](O)CN1)C(N)=O [Compound A-5] (H-[Hyp]-Trp-Thr-NH2) | – | – | – | 41.34 % max glycine | −13.86 logM | 29.53 % max glycine | 2.09 pM | 38.75 % max glycine | 2.34 pM |
